According to EP0420021B1, “Hydrophilic laminated porous membranes and methods of preparing same” (ABBOTT LABORATORIES, priority 1989, dated 1991):

Assay: Capillary wicking time of laminated membrane strip (hydrophilicity)
Format: physicochemical
Text: The terms "hydrophilic" and "wettable" are frequently used herein and are used interchangeably as antonyms for "hydrophobic". A number of procedures can be used to measure hydrophilicity. Since the membranes of the preferred embodiment resemble thin layer chromatograhic strips, hydrophilicity is here measured as the rate at which the solvent front traverses the membrane strips. Darcy's law provides a rate by relating the distance the front travels to the time t. For a fixed distance, L, the relevant measurement is the time taken for the front to reach L. A relative measure of hydrophilicity is given by comparing the time or "wicking" rate of treated laminated membranes against the time or wicking rate of untreated laminated membranes. Although relative hydrophilicity is sufficient, for purposes of this invention a membrane is considered "hydrophilic" if the flow rate is such that the front traverses a length compatible with visualizing a result (ie., 2 - 10 cm) in a time consistent with rapid diagnostic assays, (ie., less than 10 minutes and preferably less than 5 minutes).
[…] At various time intervals (0, 7, 14, 21, 28, 56, 84, 112, etc days) the hydrophilicity of the membrane was tested by immersing a strip of laminated membrane 1-3 mm into a test solution (0.1M Tris pH 7.4, 0.9% NaCl, phenol red) and measuring the time required for the solution front to migrate a distance of 5.4 cm. A more hydrophilic membrane requires a shorter time for the liquid to move 5.4 cm.

[1] = 0 days storage at 45° C, membrane treated with surfactant as example 4 Part E, laminated with Flexcon PM150C/V23/Poly SC9
[2] = 7 days storage at 45° C, surfactant-treated (example 4 Part E), Poly SC9 laminate
[3] = 14 days storage at 45° C, surfactant-treated (example 4 Part E), Poly SC9 laminate
[4] = 21 days storage at 45° C, surfactant-treated (example 4 Part E), Poly SC9 laminate
[5] = 28 days storage at 45° C, surfactant-treated (example 4 Part E), Poly SC9 laminate

Structure (SMILES)	membrane wicking rate as a result of the treatment (Part B: surfactant 0.1% w/v from isopropanol)	Wicking Time to traverse 5.4 cm strip [1] [min]	Wicking Time to traverse 5.4 cm strip [2] [min]	Wicking Time to traverse 5.4 cm strip [3] [min]	Wicking Time to traverse 5.4 cm strip [4] [min]	Wicking Time to traverse 5.4 cm strip [5] [min]
CCCCCCCCCCCCCCCCO [cetyl alcohol]	decreased					
CCCCCCCS(=O)(=O)O [heptane sulfonic acid]		4.9	5.3	5.2	5.2	5.3
CCCCCCCCCCS(=O)(=O)O [decane sulfonic acid]		5.7	6.4	6.0	6.3	6.2
CCCCCCCCS(=O)(=O)O [octane sulfonic acid]		5.1	5.6	5.4	5.6	5.7
CCCCCCCCCCCCS(=O)(=O)O [dodecane sulfonic acid]		6.2	6.4	6.0	6.3	6.3
CCCCCCCCCCCCOS(=O)(=O)[O-].[Na+] [sodium dodecyl sulfate]		6.3	7.1	7.0	6.4	6.0
CCCCCS(=O)(=O)O [pentane sulfonic acid]		4.1	5.5	5.4	5.6	5.6
